Measurements published in patent US6759509B1, “Branched peptide linkers” (Bristol-Myers Squibb Company, priority 1996, dated 2004).

Assay: decomposition of the isolated drug/linker in solution
Format: physicochemical
Settings: by HPLC for Example 31
Description: A solution of MEt-IDA-(Phe-Lys(Mtr)-PABC-MMC)2 30 (134.6 mg, 0.0590 mmol) in methylene chloride (3 mL) at rt was treated with anisole (1.28 mL, 200 equiv) and 1 M chloroacetic acid in methylene chloride (1.18 mL, 20 equiv). After 3.5 h ethyl acetate (30 mL) was added. The resulting purple solid was collected by filtration, washed with ethyl acetate and air-dried (97.8 mg, 82%). […] MS (FAB) 1738.3 (M+Na)^+, 1776.4 (M+K)^+.
MEt-IDA-(Phe-Lys(Mtr)-PABC-7-Paclitaxel)2 33 (333.0 mg, 0.0861 mmol) in methylene chloride (3 mL) was treated with anisole (1.87 mL, 200 equiv) and 1 M chloroacetic acid in methylene chloride (1.72 mL, 20 equiv). After 4 h the mixture was diluted with ether (30 mL). The resulting suspension was sonicated for several minutes and then the solid was collected by filtration and washed with ether (256.3 mg, 97%). […] MS (ESI) 2778.2 (MH)^+.

For “MEt-IDA-(Phe-Lys-PABC-MMC)2.2Cl2CHCO2H [Example 31]”, the “stability of the product in solution” value was “appeared to decompose in solution to one product”.
